Test results reported in patent US20080167376A1, “Methods and products which utilize N-acyl-L-aspartic acid” (DMI BIOSCIENCES, INC., priority 2003, published 2008).

How the values were obtained:
[1] = tested on: PGE2 production in ionomycin-stimulated STTG cells; assay: Prostaglandin E2 assay (PGE2 EIA) in ionomycin-stimulated STTG cells; type: cell-based, human; details: for decrease in PGE2 release / effect on total PGE2 release: FIG. 2
Method: FIG. 1. Percent inhibition of prostaglandin E2 (PGE2) production in ionomycin-stimulated STTG cells. PGE2 production was assayed in ionomycin-stimulated STTG cells treated with N-acetyl-L-aspartate (NAA), aspirin (Asp) or dexamethasone (Dex) using a PGE2 enzyme immunoassay described in Example 1. Cells were pre-incubated for 1 hour with NAA, Asp or Dex and then stimulated with 1 μM ionomycin at 37° C., 10% CO2 for 24 hours. Percent inhibition of PGE2 production was measured compared to ionomycin-stimulated STTG cells in the absence of NAA, Asp or Dex. Data represent mean ±SD of three separate experiments. Asterisks indicate a significant difference between untreated, ionomycin-stimulated STTG cells and treated, ionomycin-stimulated STTG cells: *p<0.01. Iono=ionomycin.
FIG. 2. Effect of glutamate receptor antagonists and NAA on PGE2 release in STTG cells stimulated with ionomycin. PGE2 production was assayed in ionomycin-stimulated STTG cells treated with NAA or potential glutamate receptor antagonists (AP-4 and GDE) using a PGE2 enzyme immunoassay described in Example 1. Cells were pre-incubated for 1 hour with NAA or the potential glutamate receptor antagonists and then cells were stimulated with 1 μM ionomycin at 37° C., 10% CO2 for 24 hours. Percent inhibition of PGE2 production was measured compared to ionomycin-stimulated STTG cells in the absence of NAA or potential glutamate receptor antagonists. Data represent mean ±SD of three separate experiments. Asterisks indicate a significant difference between untreated, ionomycin-stimulated STTG cells and treated, ionomycin-stimulated STTG cells: *p<0.01. AP-4=L-2-amino-4-phosphonobutyric acid, and GDE=L-glutamic acid diethyl ester.
Prostaglandin E2 Assay. Human STTG astroglial cells (CRL-1718, American […], Rockville, Mass.) were grown in 75 cm^2 flasks (10% CO2, 37° C.) containing AGM medium (BioWhittaker, Walkersville, Md.) to near confluency (>90%) prior to subculturing with trypsin/EDTA. Cells were plated on a 24-well plate at 50,000 cells/well and incubated for two days to near confluency prior to dosing with inhibitors. N-Acetyl aspartate (NAA, Sigma-Aldrich, St. Louis, Mo.) was dissolved in AGM medium and brought back to a pH of 7.4. Stock solutions of aspirin were dissolved in DMSO and then diluted in culture medium. DMSO concentrations were never >0.5% in the medium bathing the cells. Cells were then dosed with potential prostaglandin E2 (PGE2) inhibitors (NAA, L-2-Amino-4-phosphonobutyric acid [L-AP-4, Sigma-Aldrich, St. Louis, Mo.], L-glutamic acid diethyl ester [GDE, generous gift from Nagaraja K. R. Rao, DMI Synthesis UK Ltd.], aspirin, or dexamethasone). After a 1-hour incubation, the cells were then stimulated with 1 μM ionomycin (Sigma-Aldrich, St. Louis, Mo.) for 24 hours at 37° C. Total volume per well was 1 mL. Then, 0.5 mL of culture medium was removed from each well and immediately assayed for PGE2 using the Prostaglandin E2 enzyme immunoassay (EIA) system (Amersham, Piscataway, N.J.). The remaining medium containing the cells was assayed for cell viability using cell titer reagent (G358A, Promega, Madison, Wis.).

[2] = molecular target: T1, COX-2 (Homo sapiens, UniProt P35354); assay: COX-2 activity assay (PGE2 EIA system); type: biochemical; details: concentrations up to 20 mM; 0.05 units COX-2, 1 μM arachidonic acid; data not shown
T1 construct: purchased Oxford Biomedical, Oxford, Mich
T1 sequence (P35354 18-604): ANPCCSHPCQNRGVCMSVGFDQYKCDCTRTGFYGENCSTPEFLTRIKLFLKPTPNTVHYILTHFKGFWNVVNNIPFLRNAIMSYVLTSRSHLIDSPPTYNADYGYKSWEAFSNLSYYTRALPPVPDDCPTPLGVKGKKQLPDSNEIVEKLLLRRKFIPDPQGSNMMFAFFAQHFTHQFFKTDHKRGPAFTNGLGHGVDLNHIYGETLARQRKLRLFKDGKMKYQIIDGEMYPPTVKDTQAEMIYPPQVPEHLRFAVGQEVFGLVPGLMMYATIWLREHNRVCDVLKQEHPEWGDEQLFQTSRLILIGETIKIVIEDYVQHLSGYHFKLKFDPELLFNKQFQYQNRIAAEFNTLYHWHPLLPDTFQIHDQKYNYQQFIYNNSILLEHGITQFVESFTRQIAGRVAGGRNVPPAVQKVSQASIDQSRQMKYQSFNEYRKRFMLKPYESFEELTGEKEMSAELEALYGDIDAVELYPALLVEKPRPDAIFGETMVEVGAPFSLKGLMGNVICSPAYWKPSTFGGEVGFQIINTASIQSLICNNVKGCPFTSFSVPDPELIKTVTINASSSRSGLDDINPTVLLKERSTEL
Method: COX-2 Activity Assay. Modifying the method of Ouellet and co-workers (Proc. Natl. Acad. Sci. USA, 98:14583-14588 (2001)), COX-2 activity was determined using the PGE2 EIA system. Briefly, COX-2 (Oxford Biomedical, Oxford, Mich.) was incubated at 37° C. for 5 minutes with arachidonic acid (AA), 500 μM phenol, and 1 μM hematin in a 100 mM phosphate buffer (pH 6.5). The reaction was stopped with a solution containing dH2O/MeOH/1 M citric acid (30:4:1). After optimization of COX-2 and AA, 0.05 units of COX-2 per incubation and 1 μM of AA were determined to be optimal. Varying concentrations of NAA and aspirin (pH 6.5) were pre-incubated with COX-2, hematin, and phenol for 15 minutes at 37° C. prior to AA addition. The reaction was stopped after 5-minute incubation with AA. PGE2 levels were determined using PGE2 EIA system as described.
Effect of NAA on COX-2 activity and mRNA. To determine if NAA was inhibiting the cyclooxygenase enzyme directly, a COX-2 activity assay was developed using the PGE2 EIA system. After optimizing for COX-2 and arachidonic acid (AA), a concentration of 0.05 units/incubation of COX-2 and 1 μM of AA was determined to be optimal.

[3] = tested on: activated NFκB in IL-1β-stimulated STTG cells; assay: NFκB assay (ELISA-based) in IL-1β-stimulated STTG cells; type: cell-based, human; details: 1 ng/ml IL-1β, 24 h, FIG. 4
Method: FIG. 4. Effect of NAA on NFκB levels in STTG cells stimulated with IL-1. Cells were dosed with NAA and immediately stimulated with 1 ng/ml IL-1 for 24 hours at 37° C., 10% CO2. Cells were lysed, and 10 μg of total protein was assayed for activated NFκB levels using an ELISA-based method. Data represent mean ±SD of three separate experiments. Percentages are percent of inhibition of production of activated NFκB. Asterisks indicate a significant difference between untreated, IL-1β-stimulated STTG cells and NAA-treated, IL-1β-stimulated STTG cells: *p<0.005.
NFκB Assay. STTG cells were treated with NAA and stimulated immediately with 1 ng/ml IL-1β. After a 24-hour incubation, cells were lysed and total protein was quantitated using the BCA™ Protein Assay Kit (Pierce, Rockford, Ill.). Then, 10 μg of protein lysate was assayed for NFκB using the TransAM™ NFκB Family Transcription Factor Assay Kit (Catalog No. 43296, Active Motif, Carlsbad, Calif.).
Effect of NAA on NFκB activation. Activated NFκB was quantitated using a 96-well plate coated with an oligonucleotide that contains an NFκB consensus-binding site. This site specifically binds activated NFκB contained in cell extracts.

[4] = tested on: COX-2 protein in STTG cells; assay: Western blot of total COX-2 protein in STTG cells; type: cell-based, human; details: 24 h, 200 μM aspirin, 10 mM NAA (FIG. 3); for effect on total amount of COX-2 protein: STTG cells stimulated with 1 or 2 ng/ml IL-1β; for effect on resting COX-2 protein: unstimulated STTG cells
Method: FIG. 3. Representative Western blot for total COX-2 protein in IL-1β-stimulated STTG cells treated with NAA and aspirin. Cells were incubated for 24 hours at 37° C., 10% CO2. Cells were dosed as follows: untreated (lane 1), 200 μM aspirin (lane 2), 10 mM NAA (lane 3), 1 ng/ml IL-1β (lane 4), 2 ng/ml IL-1β (lane 5), 1 ng/ml IL-1β+200 μM aspirin (lane 6), 2 ng/ml IL-1β+200 μM aspirin (lane 7), 1 ng/ml IL-1β+10 mM NAA (lane 8), or 2 ng/ml IL-1β+10 mM NAA (lane 9). Cells were lysed and COX-2 protein was immunoprecipitated overnight (1:500 goat anti-human COX-2) from 400 μg total lysate protein. Immunoprecipitate was loaded on 4-20% tris-glycine gel and transferred overnight onto nitrocellulose membrane. Total COX-2 protein was quantitated using a goat anti-human COX-2 antibody (1:100) and 1:5,000 rabbit anti-goat IgG. The membrane was visualized by chemiluminescence.
Western Blot of COX-2. STTG cells were treated with either NAA or aspirin and immediately stimulated with 1 or 2 ng/ml IL-1β (Sigma-Aldrich, St. Louis, Mo.). After a 24-hour incubation at 37° C. (10% CO2), cells were lysed and total protein was quantitated by BCA (Pierce, Rockford, Ill.). Then, 0.5 mg lysate was immunoprecipitated using 1:500 goat anti-human COX-2 (Santa Cruz Biotechnology, Santa Cruz, Calif.) and Protein AG beads (Pierce, Rockford, Ill.) overnight at 4° C. Samples were loaded on a 4-20% Tris-Glycine gel (Invitrogen, Carlsbad, Calif.) and transferred to a nitrocellulose membrane overnight. The membrane was blocked with 5% Blotto (Santa Cruz Biotechnology, Santa Cruz, Calif.), and COX-2 was detected using 1:100 goat anti-human COX-2 (Santa Cruz Biotechnology, Santa Cruz, Calif.) and 1:5,000 rabbit anti-goat IgG HRP (Santa Cruz Biotechnology, Santa Cruz, Calif.). The membrane was visualized using ECL (Amersham, Piscataway, N.J.) and exposed to X-ray film.

[5] = tested on: COX-2 mRNA in STTG astroglial cells; assay: RT-PCR of COX-2 in STTG cells; type: cell-based, human; details: 5 and 10 mM, data not shown
Method: RT-PCR of COX-2. STTG cells were grown to near confluency on 25 cm^2 cell culture flasks. Cells were dosed with 5 or 10 mM NAA and incubated for 4 or 24 hours at 37° C., 10% CO2. RNA was isolated using Rneasy Mini Kit (Qiagen, Valencia, Calif.) and quantitated using A260/A280 assay. Then, 2 μg of RNA was converted to cDNA using the Omniscript Reverse Transcriptase Kit (Qiagen, Valencia, Calif.). PCR was next performed using HotStarTaq Master Mix (Qiagen, Valencia, Calif.). COX-2 forward ([…] [SEQ ID NO:1]) and reverse primers ([…] [SEQ ID NO:2]) were obtained from Qiagen (Valencia, Calif.) and used at a concentration of 0.5 μM. The PCR thermal cycler program consisted of: 1) 1 denaturation cycle of 15 minutes at 95° C.; 2) 30 cycles of 94° C. (30 sec denaturation), 55° C. (30 sec annealing), and 72° C. (30 sec elongation); and 3) 1 elongation cycle of 10 minutes at 72° C. PCR product was then loaded on a 2% (w/v) agarose gel and stained with ethidium bromide.

[6] = 5 mM, ionomycin-stimulated STTG cells
[7] = 10 mM, ionomycin-stimulated STTG cells
[8] = ionomycin-stimulated STTG cells, result in words

Row | SMILES | decrease in PGE2 release [1, 6] [%] | decrease in PGE2 release [1, 7] [%] | effect on total PGE2 release [1, 8] | effect on total amount of COX-2 protein [4] | effect on resting COX-2 protein [4] | also measured
1 | CCOC(=O)CC[C@H](N)C(=O)OCC [GDE, L-glutamic acid diethyl ester, reference compound] | 40 | 60 | did decrease | – | – | –
2 | N[C@@H](CCP(=O)(O)O)C(=O)O [L-AP-4, L-2-amino-4-phosphonobutyric acid, reference compound] | – | – | did decrease | – | – | –
3 | CC(=O)N[C@@H](CC(=O)O)C(=O)O [NAA, N-acetyl-L-aspartic acid] | 60 | 90 | – | decreased | no effect | decrease in PGE2 production ([1]; 5 mM, 1 h pre-incubation, 1 μM ionomycin 24 h, STTG cells, FIG. 1): 56%; decrease in PGE2 production ([1]; 10 mM, 1 h pre-incubation, 1 μM ionomycin 24 h, STTG cells, FIG. 1): 76%; inhibition at 20000 µM ([1]; Homo sapiens, 20 mM, 1 h pre-incubation, 1 μM ionomycin 24 h, STTG cells, FIG. 1, read-out: decrease in PGE2 production (inhibition)): > 95%; effect on COX-2 activity [2]: no effect; decrease in NFκB production (activated NFκB) ([3]; 10 mM): 17.5%; decrease in NFκB production (activated NFκB) ([3]; 20 mM): 40%; effect on total COX-2 mRNA [5]: did not decrease
4 | CC(=O)Oc1ccccc1C(=O)O [aspirin, reference compound] | – | – | – | decreased | decreasing effect | inhibition of cyclooxygenases as evidenced by lack of PGE2 production ([1]; ionomycin-stimulated STTG cells, FIG. 1, result in words): complete inhibition
